“Also recorded” adds a separate entry of the source. Where two headings read alike, the source gives them in different places.
Key:
Nurr1 LBD His516Ala = biological target: T1, Nurr1 LBD His516Ala (Homo sapiens, UniProt P43354, H516A); assay: MST binding to His516Ala mutant Nurr1 LBD; details: for Amplitude (% change) / KD (% change): Table 1, H516 relative to WT; for Amplitude: Table 1, MST amplitude, H516; for Response Amplitude: Table 2, MST, His516Ala
T1 construct: Mutants of LAP2 Nurr1 were prepared by GenScript starting from LAP2 Nurr1 vector; made in house
T1 sequence (P43354 with tags, fused parts or gaps H516A): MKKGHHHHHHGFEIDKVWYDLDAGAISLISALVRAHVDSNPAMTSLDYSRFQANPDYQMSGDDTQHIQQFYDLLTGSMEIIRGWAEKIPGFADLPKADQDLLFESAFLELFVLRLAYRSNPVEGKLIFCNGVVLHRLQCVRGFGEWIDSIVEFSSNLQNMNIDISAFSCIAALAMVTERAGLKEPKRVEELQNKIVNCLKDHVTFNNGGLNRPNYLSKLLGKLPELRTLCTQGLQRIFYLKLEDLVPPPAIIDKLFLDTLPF
Protocol: (§1) The plasmid used for the expression of LAP2-tagged Nurr1 LBDs (LAP2 Nurr1) was prepared by GenScript (Piscataway, N.J.) as the product of gene synthesis and subcloning into pET-21a(+) Vector (GenScript) using the Ndel and Xhol sites within the MCS. Mutants of LAP2 Nurr1 were prepared by GenScript starting from LAP2 Nurr1 vector.
(§2) Concentration-dependent association of the indoles with the Nurr1 LBD was carried out using microscale thermophoresis. Stock solutions (10 mM in DMSO) of each indole were serially diluted (200 μM indole, 0.5× dilutions down to 0.0061 μM) in MST buffer (25 mM HEPES, pH 7.4, 150 mM NaCl, and 0.1% Pluronic F127) containing 2% DMSO. The dilutions were carried out with 4% DMSO in the MST buffer for a total of 16 concentrations. Equivalent volumes and concentrations of the fluorescently labeled Nurr1 LBD in MST buffer were added to each ligand dilution in the series to reach a final concentration of 75 nM labeled protein. After incubating for 20 minutes, the samples were loaded into Monolith NT.115 Capillaries (Nanotemper).
(§3) Data were collected using the Monolith NT.115 System (Nanotemper), with settings for all samples at 40% excitation power and 40% MST power. The initial fluorescence was recorded for 3 sec and the thermophoresis fluorescence response was recorded for 20 sec. The data was inspected with Palmist software^5, and data points affected by initial fluorescence quenching or photobleaching were eliminated. The fluorescent response for each sample was normalized to the initial fluorescence using Palmist software to provide the values of thermophoresis (Fn). The resulting data was used to generate a plot of the change in thermophoresis (Fn-Fn0, where Fn=thermophoresis and Fn0=thermophoresis response in unbound range) versus concentration of the ligand. GraphPad Prism v. 8.3.0 software was used to fit the resulting data to a mass action equation for a specific binding with Hill slope, solving for KD: Fn-Fn0═Fmax·[L]^n/(KD^n+[L]^n), where Fmax=maximum amplitude of thermophoresis, [L]=concentration of the ligand at a specific point, KD=dissociation constant, nH=Hill Coefficient.

[1] = biological target: T2, Nurr1 LBD Arg563Ala + His516Ala (Homo sapiens, UniProt P43354, H516A/R563A); assay: MST binding to Arg563Ala + His516Ala double mutant Nurr1 LBD; details: for Amplitude: Table 1, MST amplitude, H516A/R563A; for Response Amplitude: Table 2, MST, Arg563Ala + His516Ala
T2 construct: Mutants of LAP2 Nurr1 were prepared by GenScript starting from LAP2 Nurr1 vector; made in house
T2 sequence (P43354 with tags, fused parts or gaps H516A/R563A): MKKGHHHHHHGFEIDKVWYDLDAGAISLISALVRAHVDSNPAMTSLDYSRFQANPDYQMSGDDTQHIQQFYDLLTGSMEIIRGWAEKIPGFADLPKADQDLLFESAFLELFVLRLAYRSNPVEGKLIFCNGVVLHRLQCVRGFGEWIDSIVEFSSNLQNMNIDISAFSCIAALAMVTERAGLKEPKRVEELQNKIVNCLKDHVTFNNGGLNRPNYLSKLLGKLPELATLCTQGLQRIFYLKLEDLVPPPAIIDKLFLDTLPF
Protocol: as §1, §2, §3

[2] = test system: Nurr1 target genes Th and Vmat2 in MN9D cells; assay: Target gene transcription assay (qPCR) in MN9D cells; format: cell-based, mouse; details: for Expression of Th, fold-change relative to vehicle (DMSO) / Expression of Vmat2, fold-change relative to vehicle (DMSO): 10 μM, 24 h, normalized to Hprt
Protocol: Target Gene Transcription Assays. These assays were carried out using standard protocols. MN9D TET-ON frozen cell stocks (P5) were thawed and grown for 60-72 h on poly-D-lysine pre-treated culture dishes (100 mm) in Dulbecco's Modified Eagle Medium/Nutrient Mixture F-12 (DMEM/F-12; Gibco) supplemented with 5% Tet System Approved FBS (Takara Bio USA) at 37° C., 5% C02 to ˜80% confluency. The resulting cells were then trypsinized with 0.25% Trypsin-EDTA (Gibko) and diluted to 2·10^5 cells/ml with fresh medium. The resulting cell suspension (0.8 mL) was added to 2× concentrated compound in the same medium containing 0.2% DMSO (0.8 mL) in an Eppendorf tube. The cell suspension with compound or vehicle (DMSO) was then seeded onto a 24-well plate pre-treated with Poly-D-Lysine at 0.8 mL per well. Assays were performed under conditions of basal Nurr1 expression, without induction of additional Nurr1 expression using doxycycline.
After 24 h, total RNA was extracted the cells in each well using the Quick-RNA MiniPrep Plus Kit (Zymo Research), according to the manufacturer's instructions. The cDNA was then synthesized from 1000 ng of purified RNA using High-Capacity cDNA Reverse Transcription Kit (Applied Biosystems) and used as template. The qPCR as performed using iTaq Universal SYBR Green Supermix (BioRad) and CFX96 Real-Time Detection System machine (BioRad). Briefly, qPCR was performed in hard-shell 96-well PCR plates (BioRad) using cDNA corresponding to 8.75 ng of starting total RNA in a volume of 15 μl, containing 7.5 μl of SYBR Green Supermix, and 1 μL of 10 μM forward and reverse primers. Cycling parameters for qPCR included an initial denaturation at 95° C. for 3 min, followed by 40 cycles of 95° C. for 5 s and annealing at 56° C. for 30 s. The forward and reverse primers (Table 4) were ordered from IDT. Gene expression was quantified by the comparative2-ΔΔCt method, with the mouse housekeeping gene hypoxanthine-guanine phosphoribosyltransferase (Hprt) used as internal reference to determine the relative mRNA expression. Transcript levels for target genes were normalized to the housekeeping gene Hprt and fold change was compared to gene expression levels from vehicle (DMSO) only treated cells. GraphPad Prism 8 software was used for statistical analysis. Two-way ANOVA was applied for DMSO fold change vs compound. Results are from three independent experiments. Relative average expression±SD; *p<0.05, **p<0.01, ***p<0.001, ****p<0.0001 by ANOVA in comparison expression with 0 μM compound (DMSO only).

[3] = UV/VIS spectroscopy (A280) under MST assay conditions; format: physicochemical; details: A280 linear over all concentrations, 0.1% Pluronic F127
[4] = Table 1, Nurr1 variant H516, read-out: KD
[5] = Table 2, His516Ala, read-out: Affinity (KD)
[6] = Table 1, H516A/R563A relative to WT

SMILES | Binding affinity for His516Ala mutant versus wildtype (in words) (Nurr1 LBD His516Ala; MST) | Amplitude (% change) (Nurr1 LBD His516Ala) [%] | KD (% change) (Nurr1 LBD His516Ala) | Amplitude (Nurr1 LBD His516Ala) | Kd (Nurr1 LBD His516Ala; [4]) [µM] | Kd (Nurr1 LBD His516Ala; [5]) [µM] | Response Amplitude (Nurr1 LBD His516Ala) | Binding to Arg563Ala + His516Ala mutant Nurr1 LBD (in words) ([1]; MST) | Amplitude (% change) [1, 6] [%] | Amplitude [1] | Response Amplitude [1] | Effect on expression of Nurr1 target genes Th and Vmat2 (in words) [2] | Expression of Th, fold-change relative to vehicle (DMSO) [2] [fold] | Expression of Vmat2, fold-change relative to vehicle (DMSO) [2] [fold] | Precipitation under MST assay conditions [3] | KD (% change) [1, 6] [%] | Kd ([1]; Table 1, Nurr1 variant H516A/R563A, read-out: KD) [µM] | Kd ([1]; Table 2, Arg563Ala + His516Ala, read-out: Affinity (KD)) [µM]
Brc1ccc2[nH]ccc2c1 [5-bromoindole] | statistically unchanged | −43 | +10% | 41 + 5 | 11 | 7.3 | 33 + 5 (*) | completely eliminated | ≥−86 | - (≤10) | ≤10 (****) | upregulating the expression; also recorded: supports the transcription | 2.2 | 2.5 | do not precipitate under the assay conditions | – | – | –
Clc1ccc2[nH]ccc2c1 [5-chloroindole] | – | −50 | −36% | 34 + 4 | 16 | 8.6 | 25 + 2 (****) | – | −62 | 26 + 2 | 23 + 1 (****) | concentration dependent; also recorded: upregulating the expression; also recorded: supports the transcription; also recorded: superior to that of DHI | 1.8 | 2.4 | do not precipitate under the assay conditions | −68 | 8 | 7.3

Source: patent publication US20230255934A1, “NURR1 RECEPTOR MODULATORS AND USES THEREOF” (The Regents of the University of California, priority 2020, published 2023)
